Patent US20100069317A1, “CRYSTALLINE NEMORUBICIN HYDROCHLORIDE” (NERVIANO MEDICAL SCIENCES S.R.L., priority 2006, published 2010)

Columns and labels:
[1] = Hygroscopicity, dynamic water vapour sorption (DVS 1000); type: physicochemical; details: for Change In Mass (%): 25° C.; for hygroscopicity (in words): when exposed to humidity
Experimental: Hygroscopicity tests were performed by means of a DVS 1000 apparatus (SMS) allowing dynamic water vapour sorption analysis. Multiple sorption/desorption cycles between 0% and 90% RH were performed at 25° C.
The equipment is a “controlled atmosphere microbalance” where the weighed sample is exposed to controlled variations of the relative humidity (RH) at a constant temperature.

[2] = test system: experimental tumors (animal models); details: cited from earlier work
[3] = test system: tumor cells resistant to alkylating agents or topoisomerase II inhibitors; details: cells resistant to alkylating agents (melphalan, cisplatin) or topoisomerase II inhibitors (etoposide); cited from earlier work
[4] = test system: liver metastases from M5076 murine fibrosarcoma; details: oral administration; cited from earlier work
[5] = in the presence of mouse, rat and human liver microsomes; cited from earlier work

COc1cccc2c1C(=O)c1c(O)c3c(c(O)c1C2=O)C[C@@](O)(C(=O)CO)C[C@@H]3O[C@H]1C[C@H](N2CCO[C@H](OC)C2)[C@H](O)[C@H](C)O1.Cl [Amorphous, (8S-cis,2″S)-7,8,9,10-tetrahydro-6,8,11-trihydroxy-8-(hydroxyacetyl)-1-methoxy-10-{[2,3,6-trideoxy-3-(2-methoxy-4-morpholinyl)-α-L-lyxo-hexopyranosyl]oxy}-5,12-naphthacenedione hydrochloride]
Change In Mass (%) ([1]; Relative Humidity 3.1%, hydrochloride): 0.30%
Change In Mass (%) ([1]; Relative Humidity 6.2%, hydrochloride): 0.83%
Change In Mass (%) ([1]; Relative Humidity 9.3%, hydrochloride): 1.35%
Change In Mass (%) ([1]; Relative Humidity 12.4%, hydrochloride): 1.93%
Change In Mass (%) ([1]; Relative Humidity 15.5%, hydrochloride): 2.45%
Change In Mass (%) ([1]; Relative Humidity 18.6%, hydrochloride): 2.92%
Change In Mass (%) ([1]; Relative Humidity 21.7%, hydrochloride): 3.37%
Change In Mass (%) ([1]; Relative Humidity 24.8%, hydrochloride): 3.79%
Change In Mass (%) ([1]; Relative Humidity 27.9%, hydrochloride): 4.19%
Change In Mass (%) ([1]; Relative Humidity 31.0%, hydrochloride): 4.62%
Change In Mass (%) ([1]; Relative Humidity 34.1%, hydrochloride): 5.08%
Change In Mass (%) ([1]; Relative Humidity 37.2%, hydrochloride): 5.52%
Change In Mass (%) ([1]; Relative Humidity 40.3%, hydrochloride): 5.96%
Change In Mass (%) ([1]; Relative Humidity 43.5%, hydrochloride): 6.43%
Change In Mass (%) ([1]; Relative Humidity 46.6%, hydrochloride): 6.90%
Change In Mass (%) ([1]; Relative Humidity 49.7%, hydrochloride): 7.37%
Change In Mass (%) ([1]; Relative Humidity 52.8%, hydrochloride): 7.88%
Change In Mass (%) ([1]; Relative Humidity 55.9%, hydrochloride): 8.36%
Change In Mass (%) ([1]; Relative Humidity 59.0%, hydrochloride): 8.92%
Change In Mass (%) ([1]; Relative Humidity 62.1%, hydrochloride): 9.46%
Change In Mass (%) ([1]; Relative Humidity 65.2%, hydrochloride): 10.10%
Change In Mass (%) ([1]; Relative Humidity 68.3%, hydrochloride): 10.85%
Change In Mass (%) ([1]; Relative Humidity 71.4%, hydrochloride): 11.69%
Change In Mass (%) ([1]; Relative Humidity 74.5%, hydrochloride): 12.67%
Change In Mass (%) ([1]; Relative Humidity 77.6%, hydrochloride): 14.01%
Change In Mass (%) ([1]; Relative Humidity 80.7%, hydrochloride): 15.76%
Change In Mass (%) ([1]; Relative Humidity 83.8%, hydrochloride): 18.09%
Change In Mass (%) ([1]; Relative Humidity 86.9%): 21.51%
Change In Mass (%) ([1]; Relative Humidity 90.0%, hydrochloride): 26.66%
hygroscopicity (in words) ([1]; listed as nemorubicin amorphous, hydrochloride): highly hygroscopic

COc1cccc2c1C(=O)c1c(O)c3c(c(O)c1C2=O)C[C@@](O)(C(=O)CO)C[C@@H]3O[C@H]1C[C@H](N2CCO[C@H](OC)C2)[C@H](O)[C@H](C)O1.Cl [Form A, nemorubicin hydrochloride dihydrate]
Change In Mass (%) ([1]; Relative Humidity 0.0%): 0.00%
Change In Mass (%) ([1]; Relative Humidity 3.1%, hydrochloride dihydrate): 1.92%
Change In Mass (%) ([1]; Relative Humidity 6.2%, hydrochloride dihydrate): 3.53%
Change In Mass (%) ([1]; Relative Humidity 9.3%, hydrochloride dihydrate): 3.82%
Change In Mass (%) ([1]; Relative Humidity 12.4%, hydrochloride dihydrate): 4.02%
Change In Mass (%) ([1]; Relative Humidity 15.5%, hydrochloride dihydrate): 4.17%
Change In Mass (%) ([1]; Relative Humidity 18.6%, hydrochloride dihydrate): 4.29%
Change In Mass (%) ([1]; Relative Humidity 21.7%, hydrochloride dihydrate): 4.39%
Change In Mass (%) ([1]; Relative Humidity 24.8%, hydrochloride dihydrate): 4.49%
Change In Mass (%) ([1]; Relative Humidity 27.9%, hydrochloride dihydrate): 4.57%
Change In Mass (%) ([1]; Relative Humidity 31.0%, hydrochloride dihydrate): 4.65%
Change In Mass (%) ([1]; Relative Humidity 34.1%, hydrochloride dihydrate): 4.71%
Change In Mass (%) ([1]; Relative Humidity 37.2%, hydrochloride dihydrate): 4.77%
Change In Mass (%) ([1]; Relative Humidity 40.3%, hydrochloride dihydrate): 4.82%
Change In Mass (%) ([1]; Relative Humidity 43.5%, hydrochloride dihydrate): 4.86%
Change In Mass (%) ([1]; Relative Humidity 46.6%, hydrochloride dihydrate): 4.91%
Change In Mass (%) ([1]; Relative Humidity 49.7%, hydrochloride dihydrate): 4.95%
Change In Mass (%) ([1]; Relative Humidity 52.8%, hydrochloride dihydrate): 5.01%
Change In Mass (%) ([1]; Relative Humidity 55.9%, hydrochloride dihydrate): 5.07%
Change In Mass (%) ([1]; Relative Humidity 59.0%, hydrochloride dihydrate): 5.13%
Change In Mass (%) ([1]; Relative Humidity 62.1%, hydrochloride dihydrate): 5.19%
Change In Mass (%) ([1]; Relative Humidity 65.2%, hydrochloride dihydrate): 5.25%
Change In Mass (%) ([1]; Relative Humidity 68.3%, hydrochloride dihydrate): 5.31%
Change In Mass (%) ([1]; Relative Humidity 71.4%, hydrochloride dihydrate): 5.38%
Change In Mass (%) ([1]; Relative Humidity 74.5%, hydrochloride dihydrate): 5.46%
Change In Mass (%) ([1]; Relative Humidity 77.6%, hydrochloride dihydrate): 5.52%
Change In Mass (%) ([1]; Relative Humidity 80.7%, hydrochloride dihydrate): 5.58%
Change In Mass (%) ([1]; Relative Humidity 83.8%, hydrochloride dihydrate): 5.66%
Change In Mass (%) ([1]; Relative Humidity 86.9%, hydrochloride dihydrate): 5.75%
Change In Mass (%) ([1]; Relative Humidity 90.0%, hydrochloride dihydrate): 5.85%
RH at which the two moles of water lost on desorption are re-adsorbed ([1]; after a desorption cycle): 30%
change in mass ([1]; at about 55% RH): about 5%
hygroscopicity (in words) ([1]; hydrochloride dihydrate): non hygroscopic

COc1cccc2c1C(=O)c1c(O)c3c(c(O)c1C2=O)C[C@@](O)(C(=O)CO)C[C@@H]3O[C@H]1C[C@H](N2CCO[C@H](OC)C2)[C@H](O)[C@H](C)O1 [nemorubicin, 3′ des amino-3′ [2(S)methoxy-4-morpholinyl] doxorubicin]
optimal i.v. dose, fold less than that of doxorubicin ([2]; i.v., in vivo): at least 80 fold
oral doses giving antitumor activity comparable to i.v., fold higher than the effective i.v. doses ([2]; oral vs i.v., all the animal models examined): 1.3-2 fold
cross-resistance [3]: no cross-resistance was observed
survival time (best result) [4]: doubling of survival time
cytotoxic activity in vitro [5]: increased
